These are literature values, as cited in patent publication US20200222353A1, “Ketone ester and ketone salt compositions and methods for using the same” (priority 2019, published 2020).

For data set [1] the following is noted: in vivo.
The conditions of data set [2]: compared with D-BHB.

Consider `C[C@@H](O)CC(=O)O` [D-BHB, (3R)-3-hydroxybutanoic acid], for which, in data set [1], the “crossing of the blood-brain barrier (BBB)” value was “cross the blood-brain barrier”. Consider `C[C@H](O)CC(=O)O` [L-BHB, (3 S)-3-hydroxybutanoic acid], for which the “breakdown in the body and use for energy” value in data set [2] was “not to be broken down in the body and used for energy as quickly as D-BHB”.
